Results published in ChEMBL document CHEMBL1137751, “Molecular hybridization, synthesis, and biological evaluation of novel chroman I(Kr) and I(Ks) dual blockers” (Bioorg Med Chem Lett, 2009).
The source made the active and inactive calls. No cut-off for these calls is given here.

Experiments:
[1] = test system: Heart; assay: Antiarrhythmic activity in langendorff ischemia-reperfused Sprague-Dawley rat heart assessed as cardiac protection at 1 uM; type: functional, tissue-based
[2] = test system: Heart; assay: Cardioprotective effect in isolated langendorff ischemia-reperfused Sprague-Dawley rat heart assessed as duration of QT intervals at 1 uM after 20 mins; type: functional
[3] = test system: Heart; assay: Cardioprotective effect in isolated langendorff ischemia-reperfused Sprague-Dawley rat heart assessed as reduction of heart rate at 1 uM after 20 mins by RR interval ECG signal; type: functional; parameters: scale not given: the % may be the effect or the level left
[4] = test system: Heart; assay: Cardioprotective effect in isolated langendorff ischemia-reperfused Sprague-Dawley rat heart assessed as duration of QTc intervals at 1 uM after 20 mins; type: functional
[5] = test system: Heart; assay: Cardioprotective effect in isolated langendorff ischemia-reperfused Sprague-Dawley rat heart assessed as duration of QT intervals at 0.3 uM after 20 mins; type: functional
[6] = test system: Heart; assay: Antiarrhythmic activity in langendorff ischemia-reperfused Sprague-Dawley rat heart assessed as cardiac protection at 3 uM; type: functional, tissue-based
[7] = test system: Heart; assay: AUC in isolated langendorff ischemia-reperfused Sprague-Dawley rat heart at 1 uM; type: ADME, tissue-based
[8] = test system: Heart; assay: Cardioprotective effect in isolated langendorff ischemia-reperfused Sprague-Dawley rat heart assessed as reduction of heart rate at 0.3 uM after 20 mins by RR interval ECG signal; type: functional
[9] = test system: Heart; assay: Cardioprotective effect in isolated langendorff ischemia-reperfused Sprague-Dawley rat heart assessed as duration of QT intervals at 3 uM after 20 mins; type: functional
[10] = test system: Heart; assay: Cardioprotective effect in isolated langendorff ischemia-reperfused Sprague-Dawley rat heart assessed as duration of QTc intervals at 0.3 uM after 20 mins; type: functional
[11] = test system: Heart; assay: Cardioprotective effect in isolated langendorff ischemia-reperfused Sprague-Dawley rat heart assessed as duration of QTc intervals at 3 uM after 20 mins; type: functional
[12] = test system: Heart; assay: Cardioprotective effect in isolated langendorff ischemia-reperfused Sprague-Dawley rat heart assessed as reduction of heart rate at 3 uM after 20 mins by RR interval ECG signal; type: functional
[13] = target: T1, Voltage-gated inwardly rectifying potassium channel KCNH2 (Cavia porcellus, UniProt O08703); assay: Inhibition of ERG in guinea pig ventricular myocytes assessed as blockade of rapid delayed rectifier potassium current by whole cell patch-clamp technique
T1 sequence (O08703 whole entry): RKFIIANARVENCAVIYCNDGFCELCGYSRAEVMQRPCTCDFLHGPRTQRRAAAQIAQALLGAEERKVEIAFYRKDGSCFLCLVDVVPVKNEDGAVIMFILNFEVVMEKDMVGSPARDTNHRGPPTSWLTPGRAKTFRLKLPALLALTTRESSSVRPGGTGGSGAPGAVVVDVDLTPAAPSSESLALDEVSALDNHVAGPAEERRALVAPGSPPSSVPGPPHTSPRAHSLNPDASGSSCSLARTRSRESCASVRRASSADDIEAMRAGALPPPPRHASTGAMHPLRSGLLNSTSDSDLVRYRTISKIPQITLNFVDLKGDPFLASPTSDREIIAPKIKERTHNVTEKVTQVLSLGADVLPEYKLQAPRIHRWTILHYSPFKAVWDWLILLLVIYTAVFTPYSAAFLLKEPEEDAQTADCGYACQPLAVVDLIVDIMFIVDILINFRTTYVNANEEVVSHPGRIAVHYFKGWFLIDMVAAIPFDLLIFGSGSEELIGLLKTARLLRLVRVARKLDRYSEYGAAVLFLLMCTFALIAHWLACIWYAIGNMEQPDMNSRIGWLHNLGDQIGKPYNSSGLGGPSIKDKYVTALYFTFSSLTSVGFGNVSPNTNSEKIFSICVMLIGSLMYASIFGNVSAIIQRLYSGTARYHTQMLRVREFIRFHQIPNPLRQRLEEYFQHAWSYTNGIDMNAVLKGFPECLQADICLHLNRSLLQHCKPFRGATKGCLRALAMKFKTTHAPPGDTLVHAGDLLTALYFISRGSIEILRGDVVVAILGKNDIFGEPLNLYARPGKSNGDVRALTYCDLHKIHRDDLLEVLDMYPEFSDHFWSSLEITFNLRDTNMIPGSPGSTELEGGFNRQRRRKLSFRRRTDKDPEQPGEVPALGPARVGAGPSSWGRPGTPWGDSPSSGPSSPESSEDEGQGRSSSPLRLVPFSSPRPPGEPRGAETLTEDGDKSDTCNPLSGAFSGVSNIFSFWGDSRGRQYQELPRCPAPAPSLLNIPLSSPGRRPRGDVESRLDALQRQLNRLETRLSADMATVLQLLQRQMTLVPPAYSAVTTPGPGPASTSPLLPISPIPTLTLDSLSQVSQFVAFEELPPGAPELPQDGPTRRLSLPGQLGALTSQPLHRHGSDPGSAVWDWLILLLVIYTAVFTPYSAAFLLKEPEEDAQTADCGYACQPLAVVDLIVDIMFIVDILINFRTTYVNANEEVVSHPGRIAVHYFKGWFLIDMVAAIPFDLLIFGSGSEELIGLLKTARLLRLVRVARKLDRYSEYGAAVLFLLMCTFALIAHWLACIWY

[14] = target: T2, Potassium voltage-gated channel subfamily KQT member 1 (Cavia porcellus, UniProt O70344); assay: Inhibition of KVLQT1/minK in guinea pig ventricular myocytes assessed as blockade of slow delayed rectifier potassium current by whole cell patch-clamp technique; type: cell-based, Ventricular myocyte
T2 sequence (O70344 whole entry): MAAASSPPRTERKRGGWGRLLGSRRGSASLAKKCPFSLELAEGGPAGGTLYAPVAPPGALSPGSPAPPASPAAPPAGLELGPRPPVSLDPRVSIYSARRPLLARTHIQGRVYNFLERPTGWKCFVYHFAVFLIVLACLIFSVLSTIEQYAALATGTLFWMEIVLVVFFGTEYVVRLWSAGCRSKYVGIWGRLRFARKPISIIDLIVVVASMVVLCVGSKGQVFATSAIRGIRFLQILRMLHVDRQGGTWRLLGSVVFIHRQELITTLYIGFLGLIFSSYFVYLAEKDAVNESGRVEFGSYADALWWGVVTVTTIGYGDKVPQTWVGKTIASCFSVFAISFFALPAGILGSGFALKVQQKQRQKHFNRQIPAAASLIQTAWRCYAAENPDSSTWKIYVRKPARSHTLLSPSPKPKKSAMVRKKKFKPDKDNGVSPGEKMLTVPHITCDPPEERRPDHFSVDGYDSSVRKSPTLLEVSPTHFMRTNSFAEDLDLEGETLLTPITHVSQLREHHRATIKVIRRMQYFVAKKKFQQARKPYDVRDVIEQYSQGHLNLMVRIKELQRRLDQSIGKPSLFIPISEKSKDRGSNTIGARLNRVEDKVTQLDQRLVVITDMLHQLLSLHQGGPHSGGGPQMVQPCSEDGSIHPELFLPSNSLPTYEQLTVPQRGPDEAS

IC50 [14] [µM]	SMILES	Activity [1]	Activity [2] [%]	Activity [3] [%]	Activity [4]	IC50 [13] [µM]	other results
	CCCCc1oc2ccccc2c1C(=O)c1cc(I)c(OCCN(CC)CC)c(I)c1 [AMIODARONE]	Active	12	17	13%		
	CCCOc1ccc2c(c1)/C(=N/N1CC(=O)N(CCCN3CCN(C)CC3)C1=O)CCO2	Active	13	18	2%		Activity [5]: 186.7 ms; Activity [6]: Active; Activity [7]: Dose-dependent effect; Activity [8]: 198 bpm; Activity [9]: 248 ms; Activity [10]: 326.1 ms/s1/2; Activity [11]: 400.9 ms/s1/2; Activity [12]: 179 bpm
5.4	O=C1CN(/N=C2\CCOc3ccc(O)cc32)C(=O)N1CCCCN1CCCCC1					> 10	
0.24	CN1CCN(CCCCN2C(=O)CN(/N=C/c3ccc(-c4ccc(Cl)cc4)o3)C2=O)CC1 [AZIMILIDE]	Active	8	12	316.7 ms/s1/2	0.18	
> 10	CCOc1ccc2c(c1)/C(=N/N1CC(=O)N(CCCCN3CCN(C)CC3)C1=O)CCO2					6.15	
0.0058	CN1CCN(CCCN2C(=O)CN(/N=C3\CCOc4ccc(Cl)cc43)C2=O)CC1					3.87	
60	CN1CCN(CCCCN2C(=O)CN(/N=C3\CCOc4ccc(O)cc43)C2=O)CC1					> 100	
> 100	Cc1ccc2c(c1)/C(=N/N1CC(=O)N(CCCCN3CCN(C)CC3)C1=O)CCO2					> 10	
